The values that follow come from PubChem BioAssay AID1845204 (Molecular Pharmacology Branch, DTP, NCI, 2023).

Values joined by “and” are separate entries in the source; they are usually repeats but may differ in a detail not shown here. Equal values may be shown once.

The test deals with HSSY-II tumor spheroid viability. The test is described as follows: Anticancer human tumor HSSY-II cell line growth inhibition.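 For all read-outs here: spheroids exposed to compounds for seven days before reading.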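 For viability, T/C: percent of DMSO vehicle control viability so 100% = untreated level.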 Particulars: spheroids with HUVEC and MSC; for viability, T/C: stronger effect = lower value. The essentials:
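Single agents and combinations were tested on spheroids built from tumor cells plus HUVEC and hMSC, at half-log dilutions starting at or near clinical Cmax, else 10 microM; final DMSO 0.25% (v/v).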

Setting [1] is: curve of first compound, second compound 0.003 µM.
[2] abbreviates: curve of first compound, second compound 0.00949 µM.
Setting [3] is: curve of first compound, second compound 0.03 µM.
[4] abbreviates: curve of first compound, second compound 0.0949 µM.
Where [5] appears, read: curve of first compound, second compound 0.3 µM.
[6] abbreviates: second compound 0.003 µM, first compound 0.0949 µM.
Setting [7] is: second compound 0.003 µM, first compound 0.3 µM.
The mark [8] stands for this setting: second compound 0.003 µM, first compound 0.949 µM.
Where [9] appears, read: second compound 0.003 µM, first compound 3 µM.
Where [10] appears, read: second compound 0.00949 µM, first compound 0.0949 µM.
Setting [11] is: second compound 0.00949 µM, first compound 0.3 µM.
The mark [12] stands for this setting: second compound 0.00949 µM, first compound 0.949 µM.
[13] abbreviates: second compound 0.00949 µM, first compound 3 µM.
Where [14] appears, read: second compound 0.03 µM, first compound 0.0949 µM.
Where [15] appears, read: second compound 0.03 µM, first compound 0.3 µM.
Setting [16] is: second compound 0.03 µM, first compound 0.949 µM.
Setting [17] is: second compound 0.03 µM, first compound 3 µM.
Setting [18] is: second compound 0.0949 µM, first compound 0.0949 µM.
Setting [19] is: second compound 0.0949 µM, first compound 0.3 µM.
The mark [20] stands for this setting: second compound 0.0949 µM, first compound 0.949 µM.
[21] abbreviates: second compound 0.0949 µM, first compound 3 µM.
The mark [22] stands for this setting: second compound 0.3 µM, first compound 0.0949 µM.
The mark [23] stands for this setting: second compound 0.3 µM, first compound 0.3 µM.
[24] abbreviates: second compound 0.3 µM, first compound 0.949 µM.
Where [25] appears, read: second compound 0.3 µM, first compound 3 µM.

As for `Cn1ncnc1[C@H]1c2n[nH]c(=O)c3cc(F)cc(c23)N[C@@H]1c1ccc(F)cc1` + CC[C@@]1(O)C(=O)OCc2c1cc1n(c2=O)Cc2cc3c(CN(C)C)c(O)ccc3nc2-1, the IC50 is less than 9.49 nM under setting [1]; less than 9.49 nM under setting [2]; less than 9.49 nM under setting [3]; less than 9.49 nM under setting [4]; less than 9.49 nM under setting [5]. The viability, T/C is 29.2% (second compound 0.003 µM, first compound 0.00949 µM); 16.7% (second compound 0.003 µM, first compound 0.03 µM); 9.97% under setting [6]; 6.78% under setting [7]; 5.19% under setting [8]; 4.32% under setting [9]. Further, the viability, T/C (second compound 0.00949 µM, first compound 0.00949 µM) was 7.72%; the viability, T/C (second compound 0.00949 µM, first compound 0.03 µM) was 5.97%; the viability, T/C under setting [10] is 5.6%; the viability, T/C under setting [11] is 5.88%; the viability, T/C under setting [12] was 5.84%; the viability, T/C under setting [13] is 3.69%. Also, the viability, T/C is 5.64% (second compound 0.03 µM, first compound 0.00949 µM); 5.6% (second compound 0.03 µM, first compound 0.03 µM); 5.25% under setting [14]; 5.52% under setting [15]; 4.93% under setting [16]; 3.48% under setting [17]. For the same molecule, the viability, T/C is 4.26% (second compound 0.0949 µM, first compound 0.00949 µM); 4.04% (second compound 0.0949 µM, first compound 0.03 µM); 3.48% under setting [18]; 3.91% under setting [19]; 3.43% under setting [20]; 2.72% under setting [21]. The viability, T/C runs as follows: (second compound 0.3 µM, first compound 0.00949 µM) 3.45%; (second compound 0.3 µM, first compound 0.03 µM) 4.01%; under setting [22], 3.37%; under setting [23], 3.5%; under setting [24], 2.94%; under setting [25], 2.13%.

For `COc1cc2c(cc1O)CCNC21CSC2c3c(OC(C)=O)c(C)c4c(c3C(COC1=O)N1C(O)C3Cc5cc(C)c(OC)c(O)c5C(C21)N3C)OCO4` (stereo unspecified), the viability, T/C is, setting by setting: (compound 0.0003 µM) 16.7% [middle of 10 runs]; (compound 0.000949 µM) 3.25% [middle of 9 runs]; (compound 0.003 µM) 0.2% [middle of 7 runs]. In addition, the IC50 (compound alone, run of 12/12/2019) is 0.187 nM [middle of 10 runs].

On to `Cn1ncnc1[C@H]1c2n[nH]c(=O)c3cc(F)cc(c23)N[C@@H]1c1ccc(F)cc1`, for which the viability, T/C runs as follows: (compound 0.00949 µM) 76.5% and 87.8% and 78.8%; (compound 0.03 µM) 64.8% and 81.5% and 64.3%; (compound 0.0949 µM) 40.7% and 58.8% and 46.4%; (compound 0.3 µM) 15.3% and 25.6% and 20.6%; (compound 0.949 µM) 6.4% and 9.46% and 9.61%; (compound 3 µM) 4.87% and 8.07% and 6.62%. Moreover, for the setting “curve of compound”, the IC50 was 60.5 nM and 129 nM and 70.4 nM.

Turning to `O=C(c1cc(Cc2n[nH]c(=O)c3ccccc23)ccc1F)N1CCN(C(=O)C2CC2)CC1` + CC[C@@]1(O)C(=O)OCc2c1cc1n(c2=O)Cc2cc3c(CN(C)C)c(O)ccc3nc2-1, the IC50 reads like this: under setting [1], 505 nM; under setting [2], less than 94.9 nM; under setting [3], less than 94.9 nM; under setting [4], less than 94.9 nM; under setting [5], less than 94.9 nM. Also, the viability, T/C under setting [6] is 63.4%; the viability, T/C under setting [7] is 56.4%; the viability, T/C under setting [8] was 41.4%; the viability, T/C under setting [9] was 18.8%; the viability, T/C (second compound 0.003 µM, first compound 9.49 µM) was 7.55%; the viability, T/C (second compound 0.003 µM, first compound 30 µM) was 7.59%. The viability, T/C by setting is: under setting [10], 14.3%; under setting [11], 11.9%; under setting [12], 10.8%; under setting [13], 7.16%; (second compound 0.00949 µM, first compound 9.49 µM) 6.35%; (second compound 0.00949 µM, first compound 30 µM) 7%. Moreover, the viability, T/C runs as follows: under setting [14], 5.6%; under setting [15], 5.95%; under setting [16], 5.27%; under setting [17], 6.36%; (second compound 0.03 µM, first compound 9.49 µM) 5.82%; (second compound 0.03 µM, first compound 30 µM) 6.47%. The viability, T/C is 5.02% under setting [18]; 4.58% under setting [19]; 4.8% under setting [20]; 4.07% under setting [21]; 4.67% (second compound 0.0949 µM, first compound 9.49 µM); 5.85% (second compound 0.0949 µM, first compound 30 µM). Besides, the viability, T/C under setting [22] was 3.79%; the viability, T/C under setting [23] was 4.17%; the viability, T/C under setting [24] was 3.66%; the viability, T/C under setting [25] is 4.24%; the viability, T/C (second compound 0.3 µM, first compound 9.49 µM) was 3.48%; the viability, T/C (second compound 0.3 µM, first compound 30 µM) was 4.55%.

A word on the IC50: it is the point on the concentration scale where inhibition reaches its midpoint. The viability, T/C is the ratio of treated to control.
